As a reminder, the EC50 is the concentration needed to bring the measured effect to its halfway point.

Our source for the EC50 and virus entry blocking values is PMC7700809 (Molecular Biomedicine, 2020).

Experiment [1] concerns SARS-CoV-2. The experiment can be described thus: microbe, parasite or virus in culture. It is filed as cell-based. The settings on record: Severe acute respiratory syndrome coronavirus 2, Vero, read-out: EC50 antiviral replication effect.
Experiment [2] deals with SARS-CoV-2. In words: microbe, parasite or virus in culture. The class given is cell-based.

As to `CCC(CC)COC(=O)[C@H](C)N[P@](=O)(OC[C@H]1O[C@@](C#N)(c2ccc3c(N)ncnn23)[C@H](O)[C@@H]1O)Oc1ccccc1` [Remdesivir], the concentration giving a half-maximal response (EC50) in the experiment on SARS-CoV-2 [1] worked out at 240 nM. Besides, the virus entry blocking result with SARS-CoV-2 [2] was “could not block the virus entry”.
